Measured values from patent US20240082279A1, “COMPOSITIONS AND METHODS FOR PREVENTING AND/OR TREATING SCARS” (L'Oreal, priority 2022, published 2024).

Columns and labels:
Type in all cases: cell-based, human
α-SMA = α-SMA ELISA of lysed reconstructed skin tissue; settings: 3% in 3% propylene glycol, Day 2 SoftSkin™ after CO2 laser, vs laser treated tissues not further treated, FIG. 8
Procedure: Surgical skin samples were be taken from adults and subjected to the 0.25% trypsin dermis/epidermis separation method described in Rheinwald to obtain suspensions of normal human keratinocytes (NHK) and dermal fibroblasts. See Rheinwald J. G., Green H.: Serial cultivation of strains of human epidermal keratinocytes: The formation of keratinizing colonies from single cells. Cell. 6(3):331-43. 1975. The separated normal human dermal fibroblasts were cultured in DMEM+10% fetal calf serum. The fibroblasts were cast onto a lower layer of proto-SoftSkin™ gel. A full-thickness dermal layer equivalent was obtained after contraction of a mixture of Collagen Type I and human normal fibroblasts. […]
Punched Day 2 normal human tissue cultures tissues were submerged with Tissue Lysis Buffer (R&D Systems) and cryogenically ground 3 times, and further lysed on ice for 30 minutes. […] Aliquots of the supernatant were removed and stored at −80° C. until assayed. α-SMA concentration in ECM was determined using a BCA protein array kit (Absin, abs9232-500) and normalized before ELISA assay (alpha SMA Human ELISA Kit #Abcam, ab240678). […]
(§1) Each experiment in Examples 2-5 was replicated three times. For immunostaining study, one cryosection per replicate and 4 fluorescence images/section were taken for data analysis. […]

Filaggrin = Filaggrin immunofluorescence staining in laser wounded reconstructed skin; settings: 3% in 3% propylene glycol, Day 2 SoftSkin™ after CO2 laser, vs laser alone, laser+vehicle and untreated control, FIG. 4
Procedure: (§2) Surgical skin samples were be taken from adults and subjected to the 0.25% trypsin dermis/epidermis separation method described in Rheinwald to obtain suspensions of normal human keratinocytes (NHK) and dermal fibroblasts. See Rheinwald J. G., Green H.: Serial cultivation of strains of human epidermal keratinocytes: The formation of keratinizing colonies from single cells. Cell. 6(3):331-43. 1975. The separated normal human dermal fibroblasts were cultured in DMEM+10% fetal calf serum. The fibroblasts were cast onto a lower layer of proto-SoftSkin™ gel. A full-thickness dermal layer equivalent was obtained after contraction of a mixture of Collagen Type I and human normal fibroblasts. The separated normal human keratinocyte cell cultures were initiated using the 3T3 feeder-layer technique described in Rheinwald J. G., Green H.: Epidermal growth factor and the multiplication of cultured human epidermal keratinocytes. Nature 265:421-424 (1977). The separated normal human keratinocytes were seeded on a lattice on the top layer of a proto-SoftSkin™ gel and the culture was left for 7 days in submerged conditions at 37° C. in the presence of 5% carbon dioxide in MEM containing 10% fetal calf serum, allowing the cells to proliferate and form an epidermal layer. Then, the culture was raised upwards to air-liquid interface for an additional 7 days to grow reconstructed skin models (SoftSkin™). […]

Ki67 = Ki67 immunofluorescence staining in laser wounded reconstructed skin; settings: 3% in 3% propylene glycol, Day 2 SoftSkin™ after CO2 laser, vs laser alone, laser+vehicle and untreated control, FIG. 6
Procedure: as §2

DKK-1 = DKK-1 secretion, Luminex Assay of medium supernatant from reconstructed skin; settings: 3% in 3% propylene glycol, day 1 SoftSkin™ after CO2 laser, vs laser alone, laser+vehicle, untreated control
Procedure: Surgical skin samples were be taken from adults and subjected to the 0.25% trypsin dermis/epidermis separation method described in Rheinwald to obtain suspensions of normal human keratinocytes (NHK) and dermal fibroblasts. See Rheinwald J. G., Green H.: Serial cultivation of strains of human epidermal keratinocytes: The formation of keratinizing colonies from single cells. Cell. 6(3):331-43. 1975. The separated normal human dermal fibroblasts were cultured in DMEM+10% fetal calf serum. The fibroblasts were cast onto a lower layer of proto-SoftSkin™ gel. A full-thickness dermal layer equivalent was obtained after contraction of a mixture of Collagen Type I and human normal fibroblasts. The separated normal human keratinocyte cell cultures were initiated using the 3T3 feeder-layer technique described in Rheinwald J. G., Green H.: Epidermal growth factor and the multiplication of cultured human epidermal keratinocytes. Nature 265:421-424 (1977). The separated normal human keratinocytes were seeded on a lattice on the top layer of a proto-SoftSkin™ gel and the culture was left for 7 days in submerged conditions at 37° C. in the presence of 5% carbon dioxide in MEM containing 10% fetal calf serum, allowing the cells to proliferate and form an epidermal layer. Then, the culture was raised upwards to air-liquid interface for an additional 7 days to grow reconstructed skin models (SoftSkin™).
The reconstructed skin samples derived from normal human dermal fibroblasts and normal human keratinocytes were subjected to CO2 laser treatment. […]
Medium supernatant was collected from the reconstructed skin samples. DKK-1 secretions were measured using a Luminex Assay (R&D Systems) in a panel following the manufacturer's guidelines. […]
as §1, with “analysis. All the data were statistically analyzed by Graph Pad Prism and presented as mean±standard deviation unless otherwise specified.” for “analysis.”

[1] = test system: laser wounded reconstructed skin (SoftSkin™); experiment: H&E histology of laser wounded reconstructed skin (SoftSkin™); settings: SoftSkin™ model after CO2 laser; 10 uL working solution topically every 24 hours, Day 0 to Day 2; sections Day 0, 2, 4; FIG. 2
Procedure: as §2

Compound	α-SMA expression (α-SMA)	α-SMA expression (α-SMA; listed as C-glycoside)	Filaggrin expression (relative fluorescence intensity, Image J) (Filaggrin)	Filaggrin expression (relative fluorescence intensity, Image J) (Filaggrin; listed as C-glycoside)	Ki67 expression (ratio of Ki67 positive cells/total cell number in basal layer) (Ki67)	Ki67 expression (ratio of Ki67 positive cells/total cell number in basal layer) (Ki67; listed as C-glycoside)	DKK-1 secretion/expression (DKK-1; FIG. 7)	DKK-1 secretion/expression (DKK-1; FIG. 7, listed as C-glycoside)	DKK-1 secretion/expression (DKK-1; FIG. 7, listed as Proxylane)	Keratinocyte invasion of laser dermal injury sites (H&E stained cross-sections) [1]
CC(O)C[C@@H]1OC[C@@H](O)[C@H](O)[C@H]1O (stereo partly drawn) [Hydroxypropyl tetrahydropyrantriol, C13-D-xylopyranoside2-hydroxypropane]	reduced α-SMA expression in a statistically significant manner	reduced the level of α-smooth muscle actin in laser wounded skin in a statistically significant manner	increased Filaggrin expression	significantly higher level	increased Ki67 expression	significantly higher level	enhanced expression of DKR-1	restored DKK-1 secretion to a level similar to control	enhancing the expression of DKK-1	Keratinocytes invaded laser dermal injury sites
hyaluronic acid [reference compound]										not
